Assay results as given in patent US20030215462A1, “Use of UGT inhibitors to increase bioavailability” (priority 2001, published 2003).

What was measured:
UGT2B7 = molecular target: T1, UGT2B7 (Homo sapiens, UniProt P16662); test: Substrate glucuronidation by recombinant UGT2B7; conditions: for 7-HFC glucuronidation rate: 7-HFC 50 μM
T1 sequence (P16662 24-529): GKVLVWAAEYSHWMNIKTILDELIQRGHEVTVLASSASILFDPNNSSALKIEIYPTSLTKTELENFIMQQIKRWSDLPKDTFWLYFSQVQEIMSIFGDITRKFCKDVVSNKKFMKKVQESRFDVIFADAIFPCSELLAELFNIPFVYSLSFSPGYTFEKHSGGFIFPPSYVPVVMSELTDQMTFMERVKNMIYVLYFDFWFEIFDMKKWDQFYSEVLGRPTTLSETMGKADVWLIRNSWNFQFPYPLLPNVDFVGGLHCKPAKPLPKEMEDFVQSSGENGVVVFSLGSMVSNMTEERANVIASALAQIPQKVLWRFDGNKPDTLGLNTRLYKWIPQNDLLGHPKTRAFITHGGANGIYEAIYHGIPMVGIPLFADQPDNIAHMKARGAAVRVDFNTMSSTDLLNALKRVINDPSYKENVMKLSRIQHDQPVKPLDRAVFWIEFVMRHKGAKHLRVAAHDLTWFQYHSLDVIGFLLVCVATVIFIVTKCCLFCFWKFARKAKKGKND

UGT1A8 = molecular target: T2, UGT1A8 (Homo sapiens, UniProt Q9HAW9); test: Substrate glucuronidation by recombinant UGT1A8; conditions: UGT1A8 Supersomes 250 μg/ml; 7-HFC 50 μM
T2 sequence (Q9HAW9 26-530): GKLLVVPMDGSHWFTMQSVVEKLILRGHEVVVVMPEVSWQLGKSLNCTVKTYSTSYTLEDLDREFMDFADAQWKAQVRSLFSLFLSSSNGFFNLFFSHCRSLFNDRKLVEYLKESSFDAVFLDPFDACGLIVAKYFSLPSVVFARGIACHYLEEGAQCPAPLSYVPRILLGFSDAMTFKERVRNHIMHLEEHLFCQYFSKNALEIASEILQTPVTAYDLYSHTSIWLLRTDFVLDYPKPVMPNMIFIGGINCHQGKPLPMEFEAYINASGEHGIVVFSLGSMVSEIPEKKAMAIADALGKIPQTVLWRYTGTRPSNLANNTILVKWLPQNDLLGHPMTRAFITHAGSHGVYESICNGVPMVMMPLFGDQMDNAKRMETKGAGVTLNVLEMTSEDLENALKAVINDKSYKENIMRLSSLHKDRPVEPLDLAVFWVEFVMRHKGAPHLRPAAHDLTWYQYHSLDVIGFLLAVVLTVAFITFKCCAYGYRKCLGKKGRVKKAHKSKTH

UGT1A9 = molecular target: T3, UGT1A9 (Homo sapiens, UniProt O60656); conditions: 30 min, 100 μM, pH 7.5
T3 sequence (O60656 26-530): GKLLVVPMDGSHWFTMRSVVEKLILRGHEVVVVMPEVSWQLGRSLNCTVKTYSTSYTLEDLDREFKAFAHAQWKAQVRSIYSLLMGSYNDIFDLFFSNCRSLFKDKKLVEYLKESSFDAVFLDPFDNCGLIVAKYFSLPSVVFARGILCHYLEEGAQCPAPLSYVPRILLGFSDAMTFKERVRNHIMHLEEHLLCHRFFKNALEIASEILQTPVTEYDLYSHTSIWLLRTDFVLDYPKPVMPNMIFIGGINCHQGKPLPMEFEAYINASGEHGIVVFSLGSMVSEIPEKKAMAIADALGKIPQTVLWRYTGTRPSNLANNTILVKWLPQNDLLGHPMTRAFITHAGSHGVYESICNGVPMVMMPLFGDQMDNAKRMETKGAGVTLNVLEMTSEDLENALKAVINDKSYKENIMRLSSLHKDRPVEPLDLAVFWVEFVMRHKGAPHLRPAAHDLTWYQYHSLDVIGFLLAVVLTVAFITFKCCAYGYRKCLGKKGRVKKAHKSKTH

UGT1A6 = molecular target: T4, UGT1A6 (Homo sapiens, UniProt P19224)
T4 sequence (P19224 27-532): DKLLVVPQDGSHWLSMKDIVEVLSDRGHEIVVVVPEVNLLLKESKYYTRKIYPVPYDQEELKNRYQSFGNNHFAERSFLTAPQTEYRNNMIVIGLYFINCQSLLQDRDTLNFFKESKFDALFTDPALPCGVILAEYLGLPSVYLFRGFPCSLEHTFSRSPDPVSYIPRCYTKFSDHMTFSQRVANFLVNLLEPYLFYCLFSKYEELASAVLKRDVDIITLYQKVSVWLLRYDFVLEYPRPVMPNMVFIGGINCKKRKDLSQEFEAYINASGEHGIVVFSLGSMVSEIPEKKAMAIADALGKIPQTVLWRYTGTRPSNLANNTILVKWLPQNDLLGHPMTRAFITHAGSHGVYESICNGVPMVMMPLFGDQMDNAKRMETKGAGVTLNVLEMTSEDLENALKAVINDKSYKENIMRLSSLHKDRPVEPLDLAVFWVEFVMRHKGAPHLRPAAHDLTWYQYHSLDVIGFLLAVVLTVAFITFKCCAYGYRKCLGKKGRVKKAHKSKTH

UGT1A1 = molecular target: T5, UGT1A1 (Homo sapiens, UniProt P22309)
T5 sequence (P22309 26-533): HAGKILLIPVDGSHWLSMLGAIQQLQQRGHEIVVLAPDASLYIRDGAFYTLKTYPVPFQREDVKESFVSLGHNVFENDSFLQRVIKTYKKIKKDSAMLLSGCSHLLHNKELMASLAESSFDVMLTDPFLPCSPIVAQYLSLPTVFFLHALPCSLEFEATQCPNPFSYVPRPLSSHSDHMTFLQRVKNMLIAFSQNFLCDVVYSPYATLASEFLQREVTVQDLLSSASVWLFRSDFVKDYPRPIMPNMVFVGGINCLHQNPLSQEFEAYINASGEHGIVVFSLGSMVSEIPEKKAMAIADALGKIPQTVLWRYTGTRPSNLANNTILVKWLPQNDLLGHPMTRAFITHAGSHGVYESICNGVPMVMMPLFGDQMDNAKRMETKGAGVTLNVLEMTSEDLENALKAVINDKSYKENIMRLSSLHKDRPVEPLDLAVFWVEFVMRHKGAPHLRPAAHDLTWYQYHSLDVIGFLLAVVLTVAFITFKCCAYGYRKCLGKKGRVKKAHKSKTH

7-HFC glucuronidation rate in Panvera Bacculosomes as % of Gentest Supersomes (UGT2B7; UGT2B7) [%] | 7-HFC glucuronidation rate (UGT2B7; UGT2B7 Bacculosomes 250 μg/ml) [pmol/min/mg protein] | 7-HFC glucuronidation rate (UGT2B7; UGT2B7 Supersomes 250 μg/ml) [pmol/min/mg protein] | 7-HFC glucuronidation rate (UGT1A8) [pmol/min/mg protein] | LG1/LG2 (UGT1A9) | labetalol metabolite LG1, peak area normalized to internal standard (UGT1A9) | labetalol metabolite LG2, peak area normalized to internal standard (UGT1A9) | labetalol metabolism, in words (UGT1A6) | labetalol metabolism, in words (UGT1A1) | Compound
22 | 212 ± 13 | 972 ± 72 | 486 ± 5 | – | – | – | – | – | O=c1cc(C(F)(F)F)c2ccc(O)cc2o1 [7-HFC, 7-hydroxy-4-(trifluoromethyl)coumarin]
– | – | – | – | 0.8 | 38 (1) | 49 (1) | No detectable metabolism was observed | No detectable metabolism was observed | CC(CCc1ccccc1)NCC(O)c1ccc(O)c(C(N)=O)c1 (stereo not drawn) [Labetalol, labetalol]
